From patent publication US20240316223A1, “Oxidative Cyclization Reagents for Chemoselective Tryptophan Bioconjugation” (The Regents of the University of California, priority 2021, published 2024)
Peptide text beside a SMILES is read from it. * marks the point of attachment. Cbz = O=C(OCc1ccccc1)*

Columns and labels:
HeLa cells = assay: Unfolding stress detection in living cells (desthiobiotin oxaziridine labeling, Western blot against biotin); assay type: cell-based; settings: HeLa cells treated 8 hours, lysate labeled with desthiobiotin oxaziridine (250 μM)
Description: In another application, we used Trp-CLiC as a general method to probe stress-induced protein unfolding. Indeed, under various environmental stresses, folded proteins will expose more hydrophobic residues as they unfold, and accumulation and aggregation of unfolded proteins is regarded as a signal of loss of proteostasis (34-37). Owing to its sterically demanding and hydrophobic properties, tryptophan residues are more likely to be buried in protein cores. We reasoned that this oxidative cyclization method could enable monitoring of increases in solvent accessibility of buried tryptophan residues during stress-induced protein unfolding. To test this hypothesis, we labeled lysozyme as a model protein in the presence of varying concentrations of guanidinium chloride (GdmCl) as a denaturant. […] We then used Trp-CLiC to monitor stress-induced protein unfolding in whole cell proteomes. HeLa cells were treated with the proteasome inhibitor MG-132, the ER stress inducer Tunicamycin to trigger unfolded protein stress responses, or vehicle control, then lysed and labeled with N-sulfonyl oxaziridine linked to desthiobiotin.
HeLa cells were treated with MG-132 (5 μg/ml) or Tunicamycin (5 μM) for 8 hours. Then cells were harvested and lysed in PBS buffer (1% Triton, with protease inhibitors). […] The labeling results were detected by Western blot analysis against biotin.

[1] = Selectivity and reactivity of Ac-Trp-OMe with N-sulfonyl oxaziridines (LC-MS); settings: for selectivity for the indole cycloadduct product: library screen with Ac-Trp-OMe
Procedure: Initial reactivity studies with the N-sulfonyl oxaziridine Ox-W1 and N-acetyl-L-tryptophan methyl ester (Ac-Trp-OMe) were then performed in PBS/organic solvent mixture for 10 min at room temperature and subjected to liquid chromatography-mass spectrometry (LC-MS) analysis. Tryptophan reacted with a ˜50% conversion. Two major products were observed: the desired indole cycloadduct and hydroxyl tryptophan. The cycloadduct was generated with 28% yield, consistent with simple indoles that can react with such oxaziridines in organic solution (28). […] We then synthesized and screened a library of 20 different oxaziridines for Trp-CLiC chemistry; Ox-W10, Ox-W17, and Ox-W19 emerged as the top lead candidates with improved ˜90% selectivity and high reactivity for the indole cycloadduct product, with a measured reaction rate of 24.9±1.3M^−1 s^−1 that is on par with click chemistry reactions (29-31).
A stock solution of Ac-Trp-OMe (100 mM) in MeOH was mixed with oxaziridine (100 mM) in MeOH (v/v ratio=1:1.2), followed by the immediate addition of PBS (1 volume equiv. to make 1:1 PBS/MeOH). For some oxaziridines with low solubility, the reaction was performed in PBS/MeOH/MeCN (1:1:1) co-solvent. […] It is important the initial stock solutions of Ac-Trp-OMe and oxaziridine are fully homogeneous prior to mixing.
For LC-MS analysis, solvent A was water and solvent B was methanol. The linear gradient was 40-100% B in 6.5 min and 100% B for 1.5 min.

[2] = Reaction of oxaziridine with methionine
[3] = Kinetics of the Trp-CLiC reaction (absorbance at 280 nm, UV-Vis); settings: PBS buffer, 25° C.
Procedure: For kinetics study of the Trp-CLiC reaction, the absorbance at 280 nm was time-dependently monitored by UV-Vis upon adding Ox-W18 (50 μM) into different concentrations of Ac-Trp-OMe (500 μM, 550 μM and 600 μM) in PBS buffer at 25° C. Then the second-order reaction rate constant could be obtained.

GLP-1 = GLP-1 (Homo sapiens, UniProt P01275); assay: Oxaziridine screening on peptides: GLP-1 (Q-TOF); assay type: biochemical; settings: GLP-1 (50 μM), oxaziridine (300 μM)
Procedure: Peptides were dissolved in 5% DMSO solution. […] The labeled peptides were subjected to Q-TOF analysis with a Proswift RP-4H (monolithic phenyl, 1.0 mm×50 mm, Dionex) column. The Solvent A was MilliQ water with 0.1% (v/v) formic acid, while the Solvent B was ACN with 0.1% (v/v) formic acid. The LC system was set at the 0.30 mL/min with a gradient of 5-100% solvent B in solvent A over 8 min. MassHunter Quantitative Analysis Version software was used for ion chromatogram extraction and Maximum Entropy deconvolution.

IL8 = target: T1, IL8 (Homo sapiens, UniProt P10145); assay: Protein labelling with N-sulfonyl oxaziridine: IL8 (LC-MS/MS); settings: native vs denaturant-treated IL8
T1 sequence (P10145 21-99): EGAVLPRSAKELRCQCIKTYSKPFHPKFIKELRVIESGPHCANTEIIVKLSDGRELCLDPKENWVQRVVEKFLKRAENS
Procedure: We then went on to label the model protein IL8, which has one partially buried tryptophan site.
Proteins were dissolved in Tris (50 mM, pH 8.0) buffer. Ox-W18 (100 mM stock in DMF) was added to 30 μL protein solution (50 μM) and the final concentration was 300 μM. The reactions were performed for 10 min at room temperature and then quenched by addition of excess Ac-Met-OMe solution. For protein labelling under denaturing condition, the protein solution was treated with 0.5% SDS and then boiled for 5 min at 95° C. before Ox-W18 addition. For competition assay, free Ac-Trp-OMe (2 mM) was added beforehand. […] After tryptophan labelling with Ox-W18, the proteins were desalted with Zeba™ Spin Desalting Columns (7K MWCO, 0.5 mL) before subsequent Q-TOF analysis and UV-Vis analysis or further click reaction. In-gel fluorescence imaging was also applied to test the tryptophan labelling efficiency. For the copper-mediated alkyne-azide cyclization reaction of fluorescence dye, 100 μM CuSO4, 100 μM TBTA, 100 μM azide-dye and 2 mM sodium ascorbate was added to Ox-W18-labeled proteins. […]
(§1) Trypsin digested peptides were analyzed on a Thermo Scientific Q Exactive™ Plus Hybrid Quadrupole-Orbitrap™ Mass Spectrometer coupled with an Aligent 1260 Infinite LC system. […]
For protein ID and modification identification, all MS/MS raw files were analyzed using pFind platform. […]

HEK 293T cell lysates = assay: Activity-based protein profiling (ABPP) of hyperreactive tryptophan sites; assay type: biochemical, human; settings: identified in more than two replicates
Description: We next moved on to apply Trp-CLiC at the whole proteome level, specifically to identify new functional tryptophan sites in cells using activity-based protein profiling (ABPP).
From the ABPP studies with the Trp-CLiC method, 190 unique hyperreactive tryptophan sites from 151 probe-modified proteins were identified in more than two replicates. These Ox-W18-labeled tryptophan sites were found in many classes of proteins, including enzymes, chaperones, and nucleoproteins, as well as many structural proteins. Meanwhile, we noticed that many targets are classified as non-druggable and highly enriched in diverse phase-separated compartments, such as the nucleolus, nuclear body, paraspeckle and stress granule. […] For example, the hyperreactive W196 site identified on GAPDH, W346 site found on TBA1B, and W324 and W148 on LDHA enzyme are the most surface-exposed tryptophan residues in these proteins, whereas other tryptophan residues were not probed. […] GAPDH and TBA1B were chosen as representative examples to showcase the Trp-CLiC method for ABPP. […] We then sought to further investigate the character of probed solvent-accessible tryptophan sites by performing motif analysis. […] Lysine is hydrophilic and has the capacity to form cation-π interactions with the indole tryptophan ring, providing a potential pathway for stabilizing hydrophobic tryptophan residues being surface-exposed (38, 39). […]

GAPDH and TBA1B = GAPDH and TBA1B labeling by Western Blot; assay type: biochemical
Description: From the ABPP studies with the Trp-CLiC method, 190 unique hyperreactive tryptophan sites from 151 probe-modified proteins were identified in more than two replicates. These Ox-W18-labeled tryptophan sites were found in many classes of proteins, including enzymes, chaperones, and nucleoproteins, as well as many structural proteins. Meanwhile, we noticed that many targets are classified as non-druggable and highly enriched in diverse phase-separated compartments, such as the nucleolus, nuclear body, paraspeckle and stress granule. […] For example, the hyperreactive W196 site identified on GAPDH, W346 site found on TBA1B, and W324 and W148 on LDHA enzyme are the most surface-exposed tryptophan residues in these proteins, whereas other tryptophan residues were not probed. […] GAPDH and TBA1B were chosen as representative examples to showcase the Trp-CLiC method for ABPP. […] We then sought to further investigate the character of probed solvent-accessible tryptophan sites by performing motif analysis. […] Lysine is hydrophilic and has the capacity to form cation-π interactions with the indole tryptophan ring, providing a potential pathway for stabilizing hydrophobic tryptophan residues being surface-exposed (38, 39).

lysozyme = lysozyme (Gallus gallus, UniProt P00698); assay: Lysozyme labelling with Ox-W18 (A260/A280 ratio, LC-MS/MS); settings: native folded conditions
Description: Based on spectroscopic analyses, we used the ratio of absorption signatures at 260 and 280 nm (A260/A280 ratio) to track tryptophan bioconjugation on lysozyme.
We next evaluated how many and which tryptophan residues on lysozyme are prioritized for redox-based Trp-CLiC labeling under native folded conditions. […] We then moved on to identify which tryptophan sites are targeted and tested the hypothesis that the propensity of oxidative tryptophan modification reactivity might correlate with solvent accessibility. To this end, we used the Discovery Studio platform to calculate the relative solvent accessibility of the six tryptophan residues on lysozyme.
Proteins were dissolved in Tris (50 mM, pH 8.0) buffer. Ox-W18 (100 mM stock in DMF) was added to 30 μL protein solution (50 μM) and the final concentration was 300 μM. The reactions were performed for 10 min at room temperature and then quenched by addition of excess Ac-Met-OMe solution. For protein labelling under denaturing condition, the protein solution was treated with 0.5% SDS and then boiled for 5 min at 95° C. before Ox-W18 addition. For competition assay, free Ac-Trp-OMe (2 mM) was added beforehand. […]
as §1

[4] = Ac-Trp-OMe, PBS/organic solvent mixture, 10 min, room temperature

GLP-1, sequence (P01275 92-128 limits assumed): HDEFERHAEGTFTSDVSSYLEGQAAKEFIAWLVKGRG
lysozyme, sequence (P00698 19-147): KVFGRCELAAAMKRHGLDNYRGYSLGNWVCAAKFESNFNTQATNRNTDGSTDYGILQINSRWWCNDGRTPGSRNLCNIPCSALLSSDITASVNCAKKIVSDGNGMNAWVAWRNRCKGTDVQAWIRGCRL

Compound: CC(C)C[C@@H](C=O)NC(=O)[C@H](CC(C)C)NC(=O)[C@H](CC(C)C)NC(=O)OCc1ccccc1 [MG-132] (Cbz-Leu-Leu-Leu-aldehyde)
- desthiobiotin staining signal vs vehicle control (HeLa cells): more desthiobiotin staining signal

Compound: CS(=O)(=O)N1OC1c1ccccc1 (stereo not drawn) [Ox-W1]
- Tryptophan conversion [1, 4]: ~50%
- indole cycloadduct yield [1, 4]: 28%
- product of reaction with methionine [2]: traceless methionine sulfoxide adduct

Compound: COc1ccc(S(=O)(=O)N2OC2c2ccc([N+](=O)[O-])cc2[N+](=O)[O-])cc1 (stereo not drawn) [Ox-W10]
- selectivity for the indole cycloadduct product [1]: ~90%
- measured reaction rate (second-order rate constant) [3]: 24.9 ± 1.3 M⁻¹ s⁻¹

Compound: C#Cc1ccc(S(=O)(=O)N2OC2c2ccccc2[N+](=O)[O-])cc1 (stereo not drawn) [Ox-W17]
- selectivity for the indole cycloadduct product [1]: ~90%
- measured reaction rate (second-order rate constant) [3]: 24.9 ± 1.3 M⁻¹ s⁻¹

Compound: C#CCN(C)S(=O)(=O)N1OC1c1ccccc1[N+](=O)[O-] (stereo not drawn) [Ox-W18]
- conversion (GLP-1): quantitative
- cycloadduct yield (GLP-1): 74%
- modification of the partially buried tryptophan site (IL8): modified only after treatment with a denaturant
- probe-modified proteins identified (HEK 293T cell lysates): 151
- unique hyperreactive tryptophan sites identified (HEK 293T cell lysates): 190
- GAPDH and TBA1B labeling with increased probe addition (GAPDH and TBA1B): more GAPDH and TBA1B labeling
- A260/A280 ratio (lysozyme): 0.80

Compound: C#CCN(C)S(=O)(=O)N1OC1c1ccc([N+](=O)[O-])cc1[N+](=O)[O-] (stereo not drawn) [Ox-W19]
- selectivity for the indole cycloadduct product [1]: ~90%
- measured reaction rate (second-order rate constant) [3]: 24.9 ± 1.3 M⁻¹ s⁻¹

Compound: Tunicamycin
- desthiobiotin staining signal vs vehicle control (HeLa cells): more desthiobiotin staining signal
